The term LOAEL denotes the lowest tested level that showed an adverse finding. By NOAEL is commonly meant the highest tested level that showed no adverse finding.

In data set [1] the test system is dog. The note with it: Chronic toxicity, beagle, Oral, Feed, dose end: 52 week.
Data set [2] relates to mouse. The following applies: Carcinogenicity; cd1; Oral; Feed; dose end: 18 month; group: systemic; systemic / in life observation / body weight / body weight + systemic / in life observation / mortality / mortality.
For data set [3], the system named is rat. The note with it: Multigenerational reproductive toxicity study, sprague dawley, Oral, Feed, dose end: 2 generation.
Data set [4] relates to rat. The note with it: Prenatal developmental toxicity study, other, Oral, Gavage/Intubation, dose end: 16 GD.
Data set [5] deals with rat. The note with it: Subchronic oral toxicity in rodents, sprague dawley, Feed, dose end: 90 day.
Data set [6] has as its system rat. The following applies: Combined chronic toxicity/carcinogenicity; sprague dawley; Oral; Feed; dose end: 2 year; group: systemic; systemic / in life observation / body weight / body weight + systemic / in life observation / food consumption / food consumption.
In data set [7] the test system is rat. The following applies: Multigenerational reproductive toxicity study, wistar, Oral, Feed, dose end: 3 generation.
In data set [8] the test system is rat. The following applies: Subchronic oral toxicity in rodents, wistar, [Not Specified], dose end: 13 week, group: systemic.
Data set [9] deals with dog. The following applies: Subchronic oral toxicity in nonrodent, beagle, Capsule, dose end: 26 week, group: systemic.
For data set [10], the system named is mouse. The following applies: Combined chronic toxicity/carcinogenicity, cd1, Oral, Feed, dose end: 104 week, group: systemic.
Data set [11] has as its system rat. The note with it: Combined chronic toxicity/carcinogenicity; fischer; Oral; Feed; dose end: 365 day; group: systemic; systemic / in life observation / body weight / body weight.
Data set [12] relates to mouse. The following applies: Combined chronic toxicity/carcinogenicity; other; Oral; Feed; dose end: 365 day; group: systemic; systemic / pathology microscopic / blood / lymphoma malignant.
Data set [13] deals with mouse. The following applies: Chronic toxicity, b6c3f1, Oral, Water, dose end: 104 week, group: systemic.
For data set [14], the system named is rat. The following applies: Chronic toxicity; fischer; Oral; Water; dose end: 104 week; group: systemic; systemic / pathology microscopic / mammary gland / fibroadenoma.
In data set [15] the test system is rat. The note with it: Subchronic oral toxicity in rodents, fischer, Water, dose end: 25 week, group: systemic, systemic / in life observation / body weight / body weight gain.
The subject of data set [16] is rat. The note with it: Sub-acute repeat dose toxicity; wistar; Injection; Intravenous; dose end: 28 day; group: systemic; systemic / clinical chemistry / calcium / calcium.
Data set [17] deals with mouse. The following applies: Subchronic oral toxicity in rodents, b6c3f1, Water, dose end: 13 week, group: systemic.
Data set [18] deals with rat. The following applies: Subchronic oral toxicity in rodents; wistar; Inhalation; Whole-Body; dose end: 90 day; group: systemic; systemic / clinical chemistry / alkaline phosphatase (alp/alk) / alkaline phosphatase (alp/alk) + systemic / clinical chemistry / lactic ….
Data set [19] has as its system rat. The following applies: Prenatal developmental toxicity study, sprague dawley, Inhalation, Whole-Body, dose end: 20 GD.
The mark [20] stands for this setting: group: cholinesterase, cholinesterase / cholinesterase / cholinesterase / brain cholinesterase (che).
The mark [21] stands for this setting: group: cholinesterase, cholinesterase / cholinesterase / cholinesterase / brain cholinesterase (che) + cholinesterase / cholinesterase / cholinesterase / plasma ….
Where [22] appears, read: group: systemic, systemic / in life observation / body weight / body weight + systemic / in life observation / body weight / body weight gain + systemic / in….
Where [23] appears, read: group: systemic, systemic / in life observation / body weight / body weight gain.
Where [24] appears, read: group: offspring, systemic / in life observation / body weight / offspring (pup) weight.
Where [25] appears, read: group: offspring, systemic / in life observation / body weight / offspring (pup) weight + developmental / offspring survival late / [other] / [other] + ….
Where [26] appears, read: group: parental, systemic / in life observation / body weight / body weight + systemic / in life observation / body weight / body weight gain + systemic / in….
Setting [27] is: group: developmental, systemic / in life observation / body weight / fetal weight.
Where [28] appears, read: group: maternal, systemic / in life observation / body weight / body weight gain + systemic / in life observation / clinical signs / tremors + systemic / in ….
[29] abbreviates: group: cholinesterase, cholinesterase / cholinesterase / cholinesterase / brain cholinesterase (che) + cholinesterase / cholinesterase / cholinesterase / ….
Where [30] appears, read: group: systemic, systemic / in life observation / body weight / body weight + systemic / in life observation / clinical signs / abnormal gait + systemic / in….
[31] abbreviates: group: offspring, systemic / in life observation / body weight / offspring (pup) weight + systemic / in life observation / body weight / offspring (pup) ….
Where [32] appears, read: group: parental, systemic / in life observation / body weight / body weight + systemic / in life observation / body weight / body weight gain.
Setting [33] is: group: reproductive, reproductive / offspring survival early / litter size / litter size + reproductive / offspring survival early / birth index / live birth ….
Setting [34] is: systemic / clinical chemistry / aminopyrine-n-demethylase / aminopyrine-n-demethylase + systemic / in life observation / body weight / body ….
Where [35] appears, read: systemic / in life observation / body weight / body weight gain.
Where [36] appears, read: systemic / in life observation / clinical signs / defecation (diarrhea).
The mark [37] stands for this setting: systemic / in life observation / clinical signs / defecation (diarrhea) + systemic / in life observation / clinical signs / headflicking + ….
Where [38] appears, read: systemic / pathology microscopic / blood / lymphoma malignant.
Setting [39] is: systemic / pathology microscopic / blood / lymphoma malignant + systemic / in life observation / body weight / body weight.
[40] abbreviates: systemic / in life observation / body weight / body weight gain + systemic / in life observation / mortality / mortality + systemic / ….
Where [41] appears, read: group: maternal, systemic / in life observation / body weight / body weight gain + systemic / in life observation / food consumption / food consumption.

Where only a bound is given, the exact number is not on record here.

With `CNC(=O)ON=C(SC)C(=O)N(C)C` [Oxamyl], the lowest-observed-adverse-effect level (LOAEL) in data set [1] (setting [20]) came out at 1.56 mg/kg/day; in data set [1] (setting [22]) it was 4.5 mg/kg/day; in data set [2], 7.5 mg/kg/day; in data set [3] (setting [24]) it was 5.2 mg/kg/day; in data set [3] (setting [26]), 5.2 mg/kg/day; in data set [4] (setting [27]) it was 0.5 mg/kg/day. In addition, the LOAEL in [4] (setting [28]) is 0.8 mg/kg/day; in data set [5] (setting [29]), 14.9 mg/kg/day; in data set [5] (setting [30]) it was 14.9 mg/kg/day. The NOAEL in data set [1] (setting [20]) was under 1.56 mg/kg/day; in [1] (setting [22]), 1.46 mg/kg/day; in [2], 3.75 mg/kg/day; in data set [3] (setting [25]), 1.7 mg/kg/day; in data set [3] (setting [26]), 1.7 mg/kg/day; in data set [4] (setting [27]), 0.2 mg/kg/day. Also, the NOAEL in data set [4] (setting [28]) amounted to 0.5 mg/kg/day; in data set [5] (setting [29]), 2.1 mg/kg/day; in [5] (setting [30]), 2.1 mg/kg/day. Moreover, the LEL amounted to 1.56 mg/kg/day in [1] (setting [21]); 1.56 mg/kg/day in [1] (setting [23]); 7.5 mg/kg/day in data set [2]; 5.2 mg/kg/day in data set [3] (setting [24]); 5.2 mg/kg/day in data set [3] (setting [26]); 0.5 mg/kg/day in [4] (setting [27]). Further, the LEL in data set [4] (setting [28]) was 0.8 mg/kg/day; in data set [5] (setting [29]), 14.9 mg/kg/day; in data set [5] (setting [30]), 14.9 mg/kg/day. The NEL in data set [1] (setting [21]) is under 1.56 mg/kg/day; in data set [1] (setting [23]), under 1.56 mg/kg/day; in [2], 3.75 mg/kg/day; in [3] (setting [25]), 1.7 mg/kg/day; in data set [3] (setting [26]) it was 1.7 mg/kg/day; in [4] (setting [27]), 0.2 mg/kg/day. Also, the NEL in data set [4] (setting [28]) worked out at 0.5 mg/kg/day; in [5] (setting [29]) it was 2.1 mg/kg/day; in data set [5] (setting [30]), 2.1 mg/kg/day.
`CC1(C)C(C=C(Cl)C(F)(F)F)C1C(=O)OC(C#N)c1cccc(Oc2ccccc2)c1` (centres undefined) [Cyhalothrin]: the LEL in [6] was 12.5 mg/kg/day; in data set [7] (setting [31]), 1.5 mg/kg/day; in data set [7] (setting [32]) it was 1.5 mg/kg/day; in data set [7] (setting [33]), 5 mg/kg/day; in data set [8] (systemic / clinical chemistry / aminopyrine-n-demethylase / aminopyrine-n-demethylase) it was 2.5 mg/kg/day; in data set [9] (setting [36]), 2.5 mg/kg/day. In addition, the LEL in data set [10] (systemic / in life observation / clinical signs / piloerection) came out at 15 mg/kg/day. Moreover, the LOAEL is 12.5 mg/kg/day in data set [6]; 5 mg/kg/day in data set [7] (setting [31]); 5 mg/kg/day in data set [7] (setting [32]); over 5 mg/kg/day in [7] (setting [33]); 12.5 mg/kg/day in data set [8] (setting [35]); 2.5 mg/kg/day in data set [9] (setting [36]). Further, the LOAEL in data set [10] (systemic / in life observation / clinical signs / hunched posture + systemic / in life observation / clinical signs / piloerection + …) was 75 mg/kg/day. For the same compound, the NEL was determined as 2.5 mg/kg/day in [6]; 0.5 mg/kg/day in data set [7] (setting [31]); 0.5 mg/kg/day in data set [7] (setting [32]); 1.5 mg/kg/day in data set [7] (group: reproductive, reproductive / offspring survival early / litter size / litter size); 0.5 mg/kg/day in data set [8] (setting [34]); 1 mg/kg/day in data set [9] (setting [37]). Moreover, the NEL in data set [10] (systemic / in life observation / body weight / body weight + systemic / in life observation / body weight / body weight gain + systemic / in…) stood at 3 mg/kg/day. In addition, the no-observed-adverse-effect level (NOAEL) in data set [6] is 2.5 mg/kg/day; in [7] (setting [31]) it was 1.5 mg/kg/day; in data set [7] (setting [32]) it was 1.5 mg/kg/day; in data set [7] (setting [33]) it was at least 5 mg/kg/day; in [8] (setting [34]), 2.5 mg/kg/day; in [9] (setting [37]), 1 mg/kg/day. Also, the NOAEL in [10] (systemic / in life observation / clinical signs / hunched posture + systemic / in life observation / clinical signs / piloerection) came to 15 mg/kg/day.
Consider `CCCCCC(N)=O` [Hexanamide], for which, in data set [11], the LEL was determined as 750 mg/kg/day, the LOAEL was over 750 mg/kg/day, the NEL is under 750 mg/kg/day and the NOAEL is at least 750 mg/kg/day. In [12], the LEL was determined as 1500 mg/kg/day, the lowest observed adverse effect level (LOAEL) is over 1500 mg/kg/day, the NEL was under 1500 mg/kg/day and the NOAEL is at least 1500 mg/kg/day.
As for `O=C1CCCCC1` [Cyclohexanone], the LEL in [13] (setting [38]) turned out to be 867 mg/kg/day; in data set [14] it was 325 mg/kg/day; in data set [15], 325 mg/kg/day; in [16], 100 mg/kg/day; in data set [17] (setting [35]) it was 3330 mg/kg/day. For the same compound, the NEL was under 867 mg/kg/day in data set [13] (setting [38]); 165 mg/kg/day in data set [14]; 235 mg/kg/day in data set [15]; 50 mg/kg/day in data set [16]; 1730 mg/kg/day in data set [17] (setting [40]). Further, the lowest observed adverse effect level (LOAEL) in [13] (setting [39]) was over 3330 mg/kg/day; in [14], over 325 mg/kg/day; in data set [15] it was over 325 mg/kg/day; in data set [16] it was over 100 mg/kg/day; in data set [17] (setting [40]), over 6270 mg/kg/day. Besides, the NOAEL is at least 3330 mg/kg/day in data set [13] (setting [39]); at least 325 mg/kg/day in data set [14]; at least 325 mg/kg/day in [15]; at least 100 mg/kg/day in data set [16]; at least 6270 mg/kg/day in [17] (setting [40]).
With `Cc1ccc(C)c(C)c1` [1,2,4-Trimethylbenzene], in data set [18], the LEL worked out at 25 ppm, the LOAEL was over 250 ppm, the NEL is under 25 ppm and the NOAEL is at least 250 ppm. In addition, in data set [19] (setting [27]), the LEL amounted to 600 ppm, the LOAEL was over 600 ppm, the NEL turned out to be 300 ppm and the no-observed-adverse-effect level (NOAEL) was at least 600 ppm. Besides, in [19] (setting [41]), the LEL turned out to be 600 ppm, the LOAEL is over 600 ppm, the NEL came to 300 ppm and the NOAEL is at least 600 ppm.
